Results taken from publication PMC8206213, “An L-2-hydroxyglutarate biosensor based on specific transcriptional regulator LhgR” (Nature Communications, 2021).
Where “and” joins values, the source holds several entries; their conditions need not be identical. Equal values may be shown once.

Tests used:
[1] = tested on: LhgR; test: EMSA, effect of compounds on LhgR binding to the lhgO promoter region F1; parameters: species or system Pseudomonas putida W619; conditions: 50 mM compound, 10 nM F1, 60 nM LhgR
Experimental: Electrophoretic mobility shift assays (EMSAs) were carried out using the DNA fragment (F1 or F2) and purified LhgR. The DNA fragments were first amplified by primer pairs F1-F/F1-R and F2-F/F2-R, respectively. Then, either fragment at a concentration of 10 nM DNA was incubated with LhgR (0–160 nM) in 20 μL EMSA binding buffer (10 mM Tris-HCl [pH 7.4], 50 mM KCl, 0.5 mM EDTA, 10% [vol/vol] glycerol, and 1 mM dithiothreitol [DTT]). The binding reactions were carried out at 30 °C for 30 min. Electrophoresis was performed on 6% native polyacrylamide gels at 4 °C and 170 V (constant voltage) for about 45 min, followed by staining with SYBR green I (TaKaRa, China) and photographing. Analysis of the interaction between lhgO promoter region (F1) and LHGFR was performed using the same procedure.
To characterize the effector of LhgR, purified LhgR was first incubated with L-lysine, 5-aminovalerate, glutarate, L-2-HG, D-2-HG, 2-KG, or succinate at 30 °C for 15 min, followed by incubation with the added DNA fragments at 30 °C for 30 min. The mixtures were subsequently subjected to electrophoresis.

[2] = tested on: LHGFR0N3C expressed in E. coli BL21(DE3); test: Specificity of LHGFR0N3C expressed in E. coli BL21(DE3), 1 mM compounds; type: cell-based; conditions: for Emission ratio: 1 mM compound, Fig. 5c; for Increase of the emission ratio in E. coli BL21(DE3): 1 mM exogenous compound
Experimental: To characterize the sensitivity and specificity of LHGFR expressed in E. coli BL21(DE3), 90 μL cell suspensions following 8 h carbon starvation were mixed with 10 μL increasing concentrations of L-2-HG or other compounds, and then added into a black 96-well plate (total 100 μL/per well), the fluorescence intensities were determined using an EnSight microplate reader (PerkinElmer, USA) and the following instrument settings: excitation at 430 nm, emission at 485 nm (mTFP) and 528 nm (Venus), time intervals of 5 min, the temperature at 37 °C, and shake at 180 rpm.

[3] = Dose-response of purified LHGFR for D-2-HG in buffer; type: binding
Experimental: Purified L-2-HG biosensors and different compounds were diluted by 50 mM Tris-HCl buffer (pH 7.4), mixed together in a black 96-well plate at a volume ratio of 3:1, and the fluorescence intensities were measured using an EnSight microplate reader (PerkinElmer, USA) with excitation at 430 nm, emission at 485 nm (mTFP) and 528 nm (Venus). The dose-response curves were fitted by OriginPro 2016 software (OriginLab) according to the following formula:1 R=Rmax+Rmin−Rmax/1+([L-2-HG]/Kd)^p where R, Rmin, and Rmax refer to the emission ratio of Venus to mTFP, ratio in the absence of L-2-HG, and ratio at saturation with L-2-HG, respectively. The [L-2-HG], Kd, and p refer to the L-2-HG concentration, apparent dissociation constant, and Hill slope, respectively. Emission spectra were recorded at 430 nm excitation, in steps of 2 nm. Excitation spectra were recorded using emission at 550 nm, excitation from 380 to 535 nm in steps of 2 nm.

In the case of `O=C(O)CCCC(=O)O` [Glutarate, glutarate], the “Effect on LhgR binding to the lhgO promoter region F1” value [1] is reported as “observed only in the presence of L-2-HG”, the Emission ratio ([2]; 0 min) is reported as 1.019 and 1.014 and 1.009 and the Emission ratio ([2]; 5 min) is reported as 1.014 and 1.015 and 0.998. For the same compound, the Emission ratio ([2]; 10 min) was 1.024 and 1.012 (2×), the Emission ratio ([2]; 15 min) was 1.024 and 1.01 and 1.013 and the Emission ratio ([2]; 20 min) was 1.025 and 1.007 and 1.004. For the same compound, the Emission ratio ([2]; 25 min) was 1.02 and 1.008 and 1.012, the Emission ratio ([2]; 30 min) was 1.022 and 1.0136 and 1.013 and the Emission ratio ([2]; 35 min) was 1.0109 and 1.008 and 1.004. For the same compound, the Emission ratio ([2]; 40 min) was 1.017 and 1.002 and 1.012, the Emission ratio ([2]; 45 min) was 1.022 and 1.0116 and 1.014 and the Emission ratio ([2]; 50 min) was 1.01 and 1 and 1.016. The Emission ratio ([2]; 55 min) was 1.008 and 1.012 and 1.02, the Emission ratio ([2]; 60 min) was 1.014 and 1.01 and 1.011 and the Emission ratio ([2]; 65 min) was 1.021 and 1.007 and 1.017. The Emission ratio ([2]; 70 min) was 1.032 and 1.006 and 1.011, the Emission ratio ([2]; 75 min) was 1.016 and 1.008 and 1.028 and the Emission ratio ([2]; 80 min) was 0.9989 and 1.018 and 1.024. For the same compound, the Emission ratio ([2]; 85 min) was 1.011 and 1.013 and 1.026, the Emission ratio ([2]; 90 min) was 1.005 and 1.016 and 1.027 and the “Increase of the emission ratio in E. coli BL21(DE3)” value [2] was “could not”.
For `O=C(O)CC[C@@H](O)C(=O)O` [D-2-HG], the “Emission ratio of 528/485” value ([3]; 2-HG concentration 0.01, Suppl. Fig. 9c) was 1.387 and 1.378 and 1.399, the “Emission ratio of 528/485” value ([3]; 2-HG concentration 0.01, Suppl. Fig. 9d) was 1.657 and 1.673 and 1.678 and the “Emission ratio of 528/485” value ([3]; 2-HG concentration 0.1, Suppl. Fig. 9c) was 1.372 and 1.375 and 1.382. For the same compound, the “Emission ratio of 528/485” value ([3]; 2-HG concentration 0.1, Suppl. Fig. 9d) was 1.659 and 1.671 and 1.687, the “Emission ratio of 528/485” value ([3]; 2-HG concentration 0.2, Suppl. Fig. 9c) was 1.374 and 1.387 and 1.391 and the “Emission ratio of 528/485” value ([3]; 2-HG concentration 0.2, Suppl. Fig. 9d) was 1.6456 and 1.673 and 1.682. The “Emission ratio of 528/485” value ([3]; 2-HG concentration 1, Suppl. Fig. 9c) was 1.374 and 1.373 and 1.392, the “Emission ratio of 528/485” value ([3]; 2-HG concentration 1, Suppl. Fig. 9d) was 1.662 and 1.681 and 1.683 and the “Emission ratio of 528/485” value ([3]; 2-HG concentration 2, Suppl. Fig. 9c) was 1.367 and 1.388 and 1.39. For the same compound, the “Emission ratio of 528/485” value ([3]; 2-HG concentration 2, Suppl. Fig. 9d) was 1.647 and 1.673 and 1.676, the “Emission ratio of 528/485” value ([3]; 2-HG concentration 10, Suppl. Fig. 9c) was 1.374 and 1.398 and 1.395 and the “Emission ratio of 528/485” value ([3]; 2-HG concentration 10, Suppl. Fig. 9d) was 1.662 and 1.69 and 1.707. For the same compound, the “Emission ratio of 528/485” value ([3]; 2-HG concentration 20, Suppl. Fig. 9c) was 1.362 and 1.378 and 1.389, the “Emission ratio of 528/485” value ([3]; 2-HG concentration 20, Suppl. Fig. 9d) was 1.665 and 1.705 and 1.723 and the “Emission ratio of 528/485” value ([3]; 2-HG concentration 100, Suppl. Fig. 9c) was 1.381 and 1.406 and 1.415. The “Emission ratio of 528/485” value ([3]; 2-HG concentration 100, Suppl. Fig. 9d) was 1.815 and 1.829 and 1.846, the “Emission ratio of 528/485” value ([3]; 2-HG concentration 200, Suppl. Fig. 9c) was 1.404 and 1.432 and 1.433 and the “Emission ratio of 528/485” value ([3]; 2-HG concentration 200, Suppl. Fig. 9d) was 1.932 and 1.978 and 1.981. For the same compound, the “Emission ratio of 528/485” value ([3]; 2-HG concentration 1000, Suppl. Fig. 9c) was 1.525 and 1.561 and 1.565, the “Emission ratio of 528/485” value ([3]; 2-HG concentration 1000, Suppl. Fig. 9d) was 2.255 and 2.2953 and 2.327 and the “Emission ratio of 528/485” value ([3]; 2-HG concentration 2000, Suppl. Fig. 9c) was 1.698 and 1.693 and 1.687. The “Emission ratio of 528/485” value ([3]; 2-HG concentration 2000, Suppl. Fig. 9d) was 2.559 and 2.546 and 2.55, the “Effect on LhgR binding to the lhgO promoter region F1” value [1] was “observed only in the presence of L-2-HG” and the Emission ratio ([2]; 0 min) was 1.011 and 0.989 and 0.9926. For the same compound, the Emission ratio ([2]; 5 min) was 1.03 and 1.001 and 1.013, the Emission ratio ([2]; 10 min) was 1.043 and 1.03 and 1.027 and the Emission ratio ([2]; 15 min) was 1.0445 and 1.033 and 1.032. The Emission ratio ([2]; 20 min) was 1.062 and 1.044 and 1.049, the Emission ratio ([2]; 25 min) was 1.051 and 1.047 and 1.058 and the Emission ratio ([2]; 30 min) was 1.07 and 1.05 and 1.058. For the same compound, the Emission ratio ([2]; 35 min) was 1.071 and 1.055 and 1.07, the Emission ratio ([2]; 40 min) was 1.061 and 1.059 and 1.064 and the Emission ratio ([2]; 45 min) was 1.071 and 1.057 and 1.074. For the same compound, the Emission ratio ([2]; 50 min) was 1.071 and 1.056 and 1.075, the Emission ratio ([2]; 55 min) was 1.074 and 1.067 and 1.073 and the Emission ratio ([2]; 60 min) was 1.07 (2×) and 1.065. For the same compound, the Emission ratio ([2]; 65 min) was 1.082 (2×) and 1.064, the Emission ratio ([2]; 70 min) was 1.08 and 1.068 and 1.078 and the Emission ratio ([2]; 75 min) was 1.08 and 1.07 and 1.0822. For the same compound, the Emission ratio ([2]; 80 min) was 1.068 and 1.078 and 1.077, the Emission ratio ([2]; 85 min) was 1.078 and 1.065 and 1.085 and the Emission ratio ([2]; 90 min) was 1.07 and 1.071 and 1.074. The “Increase of the emission ratio in E. coli BL21(DE3)” value [2] was “could not”.
